Results reported in patent publication US20060246106A1, “Infection resistant medical implants” (priority 2005, published 2006).
≈ marks a conversion by molar mass, not a printed value. Like-named read-outs stand apart in the source and are kept apart here. Each block holds one compound with its values, some of them ahead of it.

Assays:
[1] = in vivo; conditions: dog
Method: (§1) Serum samples were collected from the dogs at the same time as the samples for liver and kidney function tests.
(§2) The analytical method for graft samples and serum samples was identical. The method used a HPLC system with a Hypersil 5 ODS column with UV detection at a wavelength of 254 nm. The mobile phase used was a 70:30 0.2M phosphate buffer pH 6.0: acetonitrile. The limit of detection for this method is 0.1 mg/Kg graft or 0.1 mg/litre serum.
(§3) These samples were mixed 50:50 with methanol and left to stand for 1 minute. After this time the solution was centrifuged for 5 minutes at maximum speed in a Microcentaur centrifuge. The supernatant was then used for analysis.
(§4) The analytical method for serum samples and graft samples was identical. The technique used to measure the tobramycin was Polarisation FluoroImmuno Assay (PFIA) using an Abbott FLX instrument using the reverse dilution protocol with a sample volume of 5 μl. The limit of detection for this method is 0.4 mg/Kg graft or 0.4 mg/litre serum.
(§5) The serum samples were analysed directly using the Abbot FLX instrument.

[2] = tested on: Escherichia coli; experiment: MIC/MBC, antibiotic dilutions in Mueller-Hinton Broth; assay type: cell-based; conditions: E. coli, antibiotic alone
Method: The term “MIC” refers to the lowest concentration of antibiotic that inhibits in vitro bacterial growth. The term “MBC” refers to the lowest concentration of antibiotic that totally kills 99.9% of the inoculum. The principle of the test is to add dilutions of an antibiotic to Mueller-Hinton Broth and a standard concentration of the inoculum. Tubes are incubated overnight and read visually for turbidity. The lowest concentration showing no visible growth is the MIC. To establish the MBC broth cultures showing no visible growth are sub-cultured onto appropriate agar and incubated to determine if the organism has been killed.

[3] = elution rate: rifampicin/tobramycin content remaining on the graft; assay type: in vivo; conditions: graft harvested from dog, one line per dog; for concentration at 7 days / concentration at 14 days / concentration at 21 days: dog, explanted graft, other: graft implanted end to end in the infrarenal aorta
Method: Two grafts were harvested after week 1, two grafts after week 2 and the final two grafts were harvested after week 3. Immediately after harvesting, the grafts were prepared for antibiotic analysis. […] The graft samples required the rifampicin to be extracted from the graft material. The extraction procedure was as follows. A volume of methanol equivalent to 3 times the dry weight of the graft was added. […] The supernatant was then injected directly into the HPLC. […] The graft samples required the tobramycin to be extracted from the graft material. The extraction procedure was as follows. […] The supernatant was then injected directly into the PFIA. The extraction was repeated on the same graft sample to ensure that all the tobramycin had been extracted.

[4] = dog, in vivo
Method: as §1, §2, §3, §4, §5

- concentration at 1 day [1]: < 400 ng/mL
- concentration at 3 day [1]: < 400 ng/mL
- concentration at 7 day [1]: < 400 ng/mL
- concentration at 14 day [1]: < 400 ng/mL
- concentration at 21 day [1]: < 400 ng/mL
- MIC [2]: 3.12 µg/mL (≈ 6.67 µM)
- concentration at 7 days ([3]; Implant Duration 7 Days, read-out: Tobramycin Content, 1st Extraction): 4800 ng/g
- concentration at 7 days ([3]; Implant Duration 7 Days, read-out: Tobramycin Content, 2nd Extraction): < 400 ng/g
- concentration at 7 days ([3]; Implant Duration 7 Days, read-out: Tobramycin Content, Total): 4800 ng/g
- concentration at 14 days ([3]; Implant Duration 14 Days, read-out: Tobramycin Content, 1st Extraction): 510 ng/g
- concentration at 14 days ([3]; Implant Duration 14 Days, read-out: Tobramycin Content, 2nd Extraction): < 400 ng/g
- concentration at 14 days ([3]; Implant Duration 14 Days, read-out: Tobramycin Content, Total): 510 ng/g
- concentration at 21 days ([3]; Implant Duration 21 Days, read-out: Tobramycin Content, 1st Extraction): < 400 ng/g
- concentration at 21 days ([3]; Implant Duration 21 Days, read-out: Tobramycin Content, 2nd Extraction): < 400 ng/g
- concentration at 21 days ([3]; Implant Duration 21 Days, read-out: Tobramycin Content, Total): < 400 ng/g
- Tobramycin Content, 1st Extraction ([3]; Implant Duration 7 Days): 3.96 mg/Kg graft
- Tobramycin Content, 2nd Extraction ([3]; Implant Duration 7 Days): <0.4 mg/Kg graft
- Tobramycin Content, Total ([3]; Implant Duration 7 Days): 3.96 mg/Kg graft
- Tobramycin Content, 1st Extraction ([3]; Implant Duration 14 Days): <0.4 mg/Kg graft
- Tobramycin Content, 2nd Extraction ([3]; Implant Duration 14 Days): <0.4 mg/Kg graft
- Tobramycin Content, Total ([3]; Implant Duration 14 Days): <0.4 mg/Kg graft
- Tobramycin Content, 1st Extraction ([3]; Implant Duration 21 Days): <0.4 mg/Kg graft
- Tobramycin Content, 2nd Extraction ([3]; Implant Duration 21 Days): <0.4 mg/Kg graft
- Tobramycin Content, Total ([3]; Implant Duration 21 Days): <0.4 mg/Kg graft
- tobramycin present in the serum of the test dogs [4]: no detectable amount
- Tobramycin Content (serum) ([4]; 1 day): <0.4 mg/litre serum
- Tobramycin Content (serum) ([4]; 3 day): <0.4 mg/litre serum
- Tobramycin Content (serum) ([4]; 7 day): <0.4 mg/litre serum
- Tobramycin Content (serum) ([4]; 14 day): <0.4 mg/litre serum
- Tobramycin Content (serum) ([4]; 21 day): <0.4 mg/litre serum
Compound: NC[C@H]1O[C@H](O[C@H]2[C@H](O)[C@@H](O[C@H]3O[C@H](CO)[C@@H](O)[C@H](N)[C@H]3O)[C@H](N)C[C@@H]2N)[C@H](N)C[C@@H]1O [Tobramycin, tobramycin]
- MBC [2]: 6.25 µg/mL (≈ 13.4 µM)

- concentration at 1 day [1]: 230 ng/mL
- concentration at 3 day [1]: < 100 ng/mL
- concentration at 7 day [1]: < 100 ng/mL
- concentration at 14 day [1]: < 100 ng/mL
- concentration at 21 day [1]: < 100 ng/mL
- MIC [2]: 16.2 µg/mL (≈ 19.7 µM)
- concentration at 7 days ([3]; Implant Duration 7 Days, read-out: Rifampicin Content, 1st Extraction): 890 ng/g
- concentration at 7 days ([3]; Implant Duration 7 Days, read-out: Rifampicin Content, 2nd Extraction): < 100 ng/g
- concentration at 7 days ([3]; Implant Duration 7 Days, read-out: Rifampicin Content, Total): 890 ng/g
- concentration at 14 days ([3]; Implant Duration 14 Days, read-out: Rifampicin Content, 1st Extraction): 730 ng/g
- concentration at 14 days ([3]; Implant Duration 14 Days, read-out: Rifampicin Content, 2nd Extraction): < 100 ng/g
- concentration at 14 days ([3]; Implant Duration 14 Days, read-out: Rifampicin Content, Total): 730 ng/g
- concentration at 21 days ([3]; Implant Duration 21 Days, read-out: Rifampicin Content, 1st Extraction): 340 ng/g
- concentration at 21 days ([3]; Implant Duration 21 Days, read-out: Rifampicin Content, 2nd Extraction): < 100 ng/g
- concentration at 21 days ([3]; Implant Duration 21 Days, read-out: Rifampicin Content, Total): 340 ng/g
- Rifampicin Content, 1st Extraction ([3]; Implant Duration 7 Days): 0.94 mg/Kg graft
- Rifampicin Content, 2nd Extraction ([3]; Implant Duration 7 Days): <0.1 mg/Kg graft
- Rifampicin Content, Total ([3]; Implant Duration 7 Days): 0.94 mg/Kg graft
- Rifampicin Content, 1st Extraction ([3]; Implant Duration 14 Days): 1.24 mg/Kg graft
- Rifampicin Content, 2nd Extraction ([3]; Implant Duration 14 Days): <0.1 mg/Kg graft
- Rifampicin Content, Total ([3]; Implant Duration 14 Days): 1.24 mg/Kg graft
- Rifampicin Content, 1st Extraction ([3]; Implant Duration 21 Days): 0.52 mg/Kg graft
- Rifampicin Content, 2nd Extraction ([3]; Implant Duration 21 Days): <0.1 mg/Kg graft
- Rifampicin Content, Total ([3]; Implant Duration 21 Days): 0.52 mg/Kg graft
- quantity of rifampicin equated to an average human ([4]; 1 day): 1.15 mg
Compound: CO[C@H]1/C=C/O[C@@]2(C)Oc3c(C)c(O)c4c(O)c(c(/C=N/N5CCN(C)CC5)c(O)c4c3C2=O)NC(=O)/C(C)=C\C=C\[C@H](C)[C@H](O)[C@@H](C)[C@@H](O)[C@@H](C)[C@H](OC(C)=O)[C@@H]1C [Rifampicin, rifampicin]
- MBC [2]: 32.5 µg/mL (≈ 39.5 µM)
